Assay: xn = mol fraction of the nth substance listed
Conditions: 100 kPa, Liquid; for viscosity: Concentric cylinders viscometry; for mass density: Vibrating tube method

CCCCCCCC(=O)OCC [ethyl octanoate] + CC(C)CCO
Conditions	mass density [kg/m3]	viscosity [mPa·s]
288.15 K, x1 = 0.1	822.09	3.559
288.15 K, x1 = 0.2001	830.4	2.806
288.15 K, x1 = 0.3	837.58	2.382
288.15 K, x1 = 0.4	843.9	2.117
288.15 K, x1 = 0.5001	849.54	1.951
288.15 K, x1 = 0.5999	854.63	1.856
288.15 K, x1 = 0.7003	859.29	1.759
288.15 K, x1 = 0.7998	863.5	1.716
288.15 K, x1 = 0.9001	867.37	1.687
288.15 K, x1 = 1	870.88	1.686
293.15 K, x1 = 0.1	818.23	3.06
293.15 K, x1 = 0.2001	826.44	2.439
293.15 K, x1 = 0.3	833.53	2.11
293.15 K, x1 = 0.4	839.78	1.891
293.15 K, x1 = 0.5001	845.38	1.752
293.15 K, x1 = 0.5999	850.42	1.673
293.15 K, x1 = 0.7003	855.04	1.593
293.15 K, x1 = 0.7998	859.23	1.557
293.15 K, x1 = 0.9001	863.07	1.534
293.15 K, x1 = 1	866.58	1.537
298.15 K, x1 = 0.1	814.36	2.684
298.15 K, x1 = 0.2001	822.46	2.177
298.15 K, x1 = 0.3	829.47	1.885
298.15 K, x1 = 0.4	835.66	1.702
298.15 K, x1 = 0.5001	841.2	1.586
298.15 K, x1 = 0.5999	846.2	1.518
298.15 K, x1 = 0.7003	850.78	1.451
298.15 K, x1 = 0.7998	854.94	1.422
298.15 K, x1 = 0.9001	858.77	1.404
298.15 K, x1 = 1	862.28	1.41
303.15 K, x1 = 0.1	810.47	2.351
303.15 K, x1 = 0.2001	818.46	1.936
303.15 K, x1 = 0.3	825.39	1.693
303.15 K, x1 = 0.4	831.52	1.537
303.15 K, x1 = 0.5001	837.01	1.44
303.15 K, x1 = 0.5999	841.96	1.385
303.15 K, x1 = 0.7003	846.52	1.327
303.15 K, x1 = 0.7998	850.66	1.305
303.15 K, x1 = 0.9001	854.47	1.292
303.15 K, x1 = 1	857.98	1.298
308.15 K, x1 = 0.1	806.56	2.077
308.15 K, x1 = 0.2001	814.45	1.73
308.15 K, x1 = 0.3	821.3	1.527
308.15 K, x1 = 0.4	827.36	1.398
308.15 K, x1 = 0.5001	832.81	1.315
308.15 K, x1 = 0.5999	837.72	1.267
308.15 K, x1 = 0.7003	842.25	1.221
308.15 K, x1 = 0.7998	846.36	1.202
308.15 K, x1 = 0.9001	850.16	1.195
308.15 K, x1 = 1	853.68	1.2
313.15 K, x1 = 0.1	802.62	1.845
313.15 K, x1 = 0.2001	810.42	1.559
313.15 K, x1 = 0.3	817.19	1.389
313.15 K, x1 = 0.4	823.19	1.281
313.15 K, x1 = 0.5001	828.58	1.211
313.15 K, x1 = 0.5999	833.46	1.17
313.15 K, x1 = 0.7003	837.96	1.132
313.15 K, x1 = 0.7998	842.05	1.116
313.15 K, x1 = 0.9001	845.85	1.112
313.15 K, x1 = 1	849.37	1.118
318.15 K, x1 = 0.1	798.65	1.639
318.15 K, x1 = 0.2001	806.35	1.401
318.15 K, x1 = 0.3	813.06	1.258
318.15 K, x1 = 0.4	819	1.167
318.15 K, x1 = 0.5001	824.35	1.108
318.15 K, x1 = 0.5999	829.19	1.074
318.15 K, x1 = 0.7003	833.67	1.042
318.15 K, x1 = 0.7998	837.74	1.03
318.15 K, x1 = 0.9001	841.53	1.028
318.15 K, x1 = 1	845.06	1.035
323.15 K, x1 = 0.1	794.65	1.48
323.15 K, x1 = 0.2001	802.26	1.281
323.15 K, x1 = 0.3	808.9	1.157
323.15 K, x1 = 0.4	814.79	1.078
323.15 K, x1 = 0.5001	820.1	1.028
323.15 K, x1 = 0.5999	824.91	0.9986
323.15 K, x1 = 0.7003	829.36	0.9718
323.15 K, x1 = 0.7998	833.43	0.9628
323.15 K, x1 = 0.9001	837.21	0.9653
323.15 K, x1 = 1	840.74	0.9708

Reference: the NIST ThermoML archive (doi:10.1016/j.jct.2016.09.030)
